The record followed here is US20070249590A1, “Substituted indolo[2,3-a]pyrrolo[3,4-c]carbazole compounds useful in treating kinase disorders” (priority 2005, published 2007).

One may read the IC50 as the point on the concentration scale where inhibition reaches its midpoint.

This assay has as its target T1, JAK3 (JH1 and JH2 domain) (Homo sapiens, UniProt P52333).
T1 sequence (P52333 521-1111 limits assumed): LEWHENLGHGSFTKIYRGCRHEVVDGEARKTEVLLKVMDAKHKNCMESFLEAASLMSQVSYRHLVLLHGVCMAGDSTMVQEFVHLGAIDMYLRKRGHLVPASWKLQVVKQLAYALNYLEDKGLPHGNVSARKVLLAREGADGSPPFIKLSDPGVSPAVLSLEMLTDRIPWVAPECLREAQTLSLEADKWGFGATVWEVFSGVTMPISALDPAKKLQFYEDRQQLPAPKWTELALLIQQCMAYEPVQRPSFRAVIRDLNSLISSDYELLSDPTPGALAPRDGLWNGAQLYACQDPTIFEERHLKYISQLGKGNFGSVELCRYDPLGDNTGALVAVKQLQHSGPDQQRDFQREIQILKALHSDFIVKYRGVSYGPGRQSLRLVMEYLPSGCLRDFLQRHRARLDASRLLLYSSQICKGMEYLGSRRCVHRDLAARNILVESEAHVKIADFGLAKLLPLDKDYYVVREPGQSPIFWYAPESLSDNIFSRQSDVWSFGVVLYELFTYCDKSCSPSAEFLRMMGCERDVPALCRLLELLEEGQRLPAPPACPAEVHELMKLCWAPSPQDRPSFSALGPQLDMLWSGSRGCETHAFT
As to the kind of experiment: JAK3 Kinase Assay (ELISA of peptide substrate phosphorylation). The format is biochemical. The note with it: purified JAK3 enzyme, 10 μM ATP, biotinylated peptide substrate, 1 hour at room temperature. Summed up:
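Sf21-baculovirus-expressed JAK3 (JH1+JH2), glutathione-bead purified, with biotinylated peptide substrate (in buffer containing 10 μM ATP) in HEPES pH 7.5/MgCl2/DTT, 1 h RT. Product was captured on Neutravidin, detected with HRP anti-phosphotyrosine (PY99)/TMB, OD 450/650 nm. Triplicate 16-point half-log series from 200 μM gave IC50; otherwise % inhibition at 1 μM.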
Take `CN(C(=O)OC1CCn2c3ccccc3c3c4c(c5c6ccccc6n(c5c32)C1)C(=O)NC4=O)C1CCN(Cc2ccccc2)C1` (stereo not drawn) [Cpd 61, 12,13-{2-[N-methyl-N-(1-benzyl-pyrrolidin-3-yl)carbamoyloxy]-butan-1,4-yl}-12,13-dihydro-5,7-dioxo-6H-indolo[2,3-a]pyrrolo[3,4-c]carbazole]: the IC50 turned out to be 543 nM.

Regarding `O=C1NCc2c1c1c3ccccc3n3c1c1c2c2ccccc2n1CC(O)(COC(=O)N1CCC(O)CC1)C3` (stereo not drawn) [Cpd 149, 12,13-{2-hydroxy-2-[(4-hydroxy-piperidin-1-yl)carbonyloxymethyl]-propan-1,3-yl}-6,7,12,13-tetrahydro-5-oxo-5H-indolo[2,3-a]pyrrolo[3,4-c]carbazole], the IC50 amounted to 39 nM. The same measure for `O=C1NC(=O)c2c1c1c3ccccc3n3c1c1c2c2ccccc2n1CC(O)(C(=O)N1CCN(CCN2CCOCC2)CC1)C(O)C3` (stereo not drawn) [Cpd 134, 12,13-(2-{[4-(2-morpholin-4-yl-ethyl)piperazin-1-yl]carbonyl}-2,3-dihydroxy-butan-1,4-yl)-12,13-dihydro-5,7-dioxo-6H-indolo[2,3-a]pyrrolo[3,4-c]carbazole]: 53 nM; for `O=C(NCc1ccc2c(c1)OCO2)OC1CCn2c3ccccc3c3c4c(c5c6ccccc6n(c5c32)C1)C(=O)NC4=O` (stereo not drawn) [Cpd 46, 12,13-{2-[(benzo[1,3]dioxol-5-yl-methyl)carbamoyloxy]-butan-1,4-yl}-12,13-dihydro-5,7-dioxo-6H-indolo[2,3-a]pyrrolo[3,4-c]carbazole]: 66 nM; for `O=C1NC(=O)c2c1c1c3ccccc3n3c1c1c2c2ccccc2n1CC(OC(=O)N1CCCNCC1)C(O)C3` (stereo not drawn) [Cpd 111, 12,13-{2-[(hexahydro-1H-1,4-diazepin-1-yl)carbonyloxy]-3-hydroxy-butan-1,4-yl}-12,13-dihydro-5,7-dioxo-6H-indolo[2,3-a]pyrrolo[3,4-c]carbazole]: 460 nM. `O=C(NCCc1ccccn1)OCC1(O)Cn2c3ccccc3c3c4c(c5c6ccccc6n(c5c32)C1)C(=O)NC4` (stereo not drawn) [Cpd 139]: the IC50 came out at 160 nM.

On to `CN1CCC(N(C)C(=O)OC2Cn3c4ccccc4c4c5c(c6c7ccccc7n(c6c43)CC2O)C(=O)NC5=O)C1` (stereo not drawn) [Cpd 108, 12,13-(2-{[N-methyl-N-(1-methyl-pyrrolidin-3-yl)]carbamoyloxy}-3-hydroxy-butan-1,4-yl)-12,13-dihydro-5,7-dioxo-6H-indolo[2,3-a]pyrrolo[3,4-c]carbazole], for which the IC50 turned out to be 46 nM. On to `O=C1NCc2c1c1c3cc(/C=C/Cn4ccnc4)ccc3n3c1c1c2c2ccccc2n1CC(O)C(O)C3` (stereo not drawn) [Cpd 201], for which the IC50 turned out to be 24 nM. Consider `O=C(NCCCN1CCOCC1)OC1Cn2c3ccccc3c3c4c(c5c6ccccc6n(c5c32)CC1O)C(=O)NC4=O` (stereo not drawn) [Cpd 88, 12,13-{2-[(3-morpholin-4-yl-prop-1-yl)carbamoyloxy]-3-hydroxy-butan-1,4-yl}-12,13-dihydro-5,7-dioxo-6H-indolo[2,3-a]pyrrolo[3,4-c]carbazole], for which the IC50 was 113 nM. The value for `Cc1ccc(CNC(=O)OC2Cn3c4ccccc4c4c5c(c6c7ccccc7n(c6c43)CC2O)C(=O)NC5=O)o1` (stereo not drawn) [Cpd 86, 12,13-(2-{[(5-methyl-furan-2-yl)methyl]carbamoyloxy}-3-hydroxy-butan-1,4-yl)-12,13-dihydro-5,7-dioxo-6H-indolo[2,3-a]pyrrolo[3,4-c]carbazole] was 33 nM. The same measure for `O=C1NC(=O)c2c1c1c3cc(-c4cnccn4)ccc3n3c1c1c2c2ccccc2n1CC(O)CC3` (stereo not drawn) [Cpd 35, 3-pyrazin-2-yl-12,13-(2-hydroxy-butan-1,4-yl)-12,13-dihydro-5,7-dioxo-6H-indolo[2,3-a]pyrrolo[3,4-c]carbazole]: 13 nM. As for `O=C1NC(=O)c2c1c1c3ccccc3n3c1c1c2c2ccccc2n1CC(O)CC3` (stereo not drawn) [Cpd 7, 12,13-(2-hydroxy-butan-1,4-yl)-12,13-dihydro-5,7-dioxo-6H-indolo[2,3-a]pyrrolo[3,4-c]carbazole], the IC50 is 5 nM. The same measure for `CC(C)NCc1ccc2c(c1)c1c3c(c4c5ccccc5n5c4c1n2CC(CO)C5)CNC3=O` (stereo not drawn) [Cpd 213, 3-(isopropylaminomethyl)-12,13-(2-hydroxymethyl-propan-1,3-yl)-6,7,12,13-tetrahydro-5-oxo-5H-indolo[2,3-a]pyrrolo[3,4-c]carbazole]: 241 nM; for `CN1CCN(C(=O)OC2CCn3c4ccccc4c4c5c(c6c7ccccc7n(c6c43)C2)C(=O)NC5=O)CC1` (stereo not drawn) [Cpd 51, 12,13-{2-[(4-methyl-piperazin-1-yl)carbonyloxy]-butan-1,4-yl}-12,13-dihydro-5,7-dioxo-6H-indolo[2,3-a]pyrrolo[3,4-c]carbazole]: above 400 nM.

Take `Cc1ncsc1/C=C/c1ccc2c(c1)c1c3c(c4c5ccccc5n5c4c1n2CC(CO)C5)CNC3=O` (stereo not drawn) [Cpd 217, 3-[(2E)-2-(4-methyl-thiazol-5-yl)ethenyl]-12,13-(2-hydroxymethyl-propan-1,3-yl)-6,7,12,13-tetrahydro-5-oxo-5H-indolo[2,3-a]pyrrolo[3,4-c]carbazole]: the IC50 was found to be 592 nM. As to `O=C(NC1CCN(Cc2ccccc2)CC1)OCC1Cn2c3ccccc3c3c4c(c5c6ccccc6n(c5c32)C1)C(=O)NC4` (stereo not drawn) [Cpd 163, 12,13-{2-[(1-benzyl-piperidin-4-yl)carbamoyloxymethyl]-propan-1,3-yl}-6,7,12,13-tetrahydro-5-oxo-5H-indolo[2,3-a]pyrrolo[3,4-c]carbazole], the IC50 is around 1000 nM. The same measure for `O=C1NC(=O)c2c1c1c3ccccc3n3c1c1c2c2ccccc2n1CC(O)(C(=O)NCCCN1CCOCC1)C(O)C3` (stereo not drawn) [Cpd 120, 12,13-{2-[(3-morpholin-4-yl-prop-1-yl)carbamoyl]-2,3-dihydroxy-butan-1,4-yl}-12,13-dihydro-5,7-dioxo-6H-indolo[2,3-a]pyrrolo[3,4-c]carbazole]: 17 nM. The value for `CN1CCN(CCCNCc2ccc3c(c2)c2c4c(c5c6ccccc6n6c5c2n3CC(O)C(O)C6)CNC4=O)CC1` (stereo not drawn) [Cpd 197, 3-{[3-(4-methyl-piperazin-1-yl)prop-1-yl]aminomethyl}-12,13-(2,3-dihydroxy-butan-1,4-yl)-6,7,12,13-tetrahydro-5-oxo-5H-indolo[2,3-a]pyrrolo[3,4-c]carbazole] was 693 nM; that for `O=C1NC(=O)c2c1c1c3ccccc3n3c1c1c2c2ccccc2n1CC(OC(=O)N1CCN(CCN2CCOCC2)CC1)CC3` (stereo not drawn) [Cpd 56, 12,13-(2-{[4-(2-morpholin-4-yl-ethyl)piperazin-1-yl]carbonyloxy}-butan-1,4-yl)-12,13-dihydro-5,7-dioxo-6H-indolo[2,3-a]pyrrolo[3,4-c]carbazole] was 115 nM; that for `O=C1NC(=O)c2c1c1c3ccccc3n3c1c1c2c2ccccc2n1CC(O)(C(=O)N1CCN(c2ccc(O)cc2)CC1)C(O)C3` (stereo not drawn) [Cpd 129, 12,13-(2-{[4-(4-hydroxy-phenyl)piperazin-1-yl]carbonyl}-2,3-dihydroxy-butan-1,4-yl)-12,13-dihydro-5,7-dioxo-6H-indolo[2,3-a]pyrrolo[3,4-c]carbazole] was 67 nM. Take `O=C(NCCCn1ccnc1)OC1Cn2c3ccccc3c3c4c(c5c6ccccc6n(c5c32)CC1O)C(=O)NC4=O` (stereo not drawn) [Cpd 91, 12,13-{2-[(3-imidazol-1-yl-prop-1-yl)carbamoyloxy]-3-hydroxy-butan-1,4-yl}-12,13-dihydro-5,7-dioxo-6H-indolo[2,3-a]pyrrolo[3,4-c]carbazole]: the concentration for half-maximal inhibition (IC50) was 44 nM.
